Assay results published in paper PMC9213561, “3-nitroimidazo[1,2-b]pyridazine as a novel scaffold for antiparasitics with sub-nanomolar anti-Giardia lamblia activity” (International Journal for Parasitology: Drugs and Drug …, 2022).
Counter-ions that a name gives are not always drawn. Like-named read-outs stand apart in the source and are kept apart here.

Legend:
[1] = tested on: MRC-5 (human lung fibroblasts MRC-5SV40); test: Cytotoxicity on MRC-5 cells; format: cell-based
Description: (§1) G. lamblia trophozoites (WBC6) were seeded into 96-well-plates in 0.2 mL […]-medium containing 10^3 trophozoites per well in the presence of the compounds dissolved in dimethyl sulfoxide (DMSO, final concentration 0.25%) or with DMSO as a solvent control and incubated for 72 h at 37 °C in an anaerobic chamber (80% N2, 10% H2, 10% CO2). Then, plates were centrifuged (2 min, 1000 rpm), medium was removed, and cells were washed once with PBS containing 1 g/L glucose. Then, PBS-glucose containing 10 mg/L resazurin was added, and plates were incubated for up to 5 h at 37 °C. Fluorescence reading (ex 530 nm/em 590 nm) was performed at various time points, and the linear increase of fluorescence was used as a marker for cell viability. IC50 values were calculated using the logit-log algorithm and are given as mean values with 95%-confidence intervals ([[…], 2019]). The assays for growth inhibition of T. b. brucei, T. cruzi, L. infantum, P. falciparum and MRC-5 (human lung fibroblasts MRC-5SV40) were previously described ([Blaazer et al., 2014]). PDE activity was determined exactly as described ([de Heuvel et al., 2021]; [Kunz et al., 2005], [2017b]). All assays were carried out in triplicates and no more than 20% substrate was hydrolyzed in all reactions. Compounds were dissolved in DMSO and the final DMSO concentration was 1% in all reaction mixes. Control reactions with DMSO alone were always included. Data were analyzed using the GraphPad Prism software package (v7.0, GraphPad, San Diego).

[2] = tested on: Plasmodium falciparum; test: Growth inhibition of P. falciparum; format: cell-based; conditions: mean ± standard deviation, n ≥ 2, read-out: IC50 (µM) P.f.
Description: as §1

[3] = tested on: Leishmania infantum; test: Growth inhibition of L. infantum; format: cell-based; conditions: mean ± standard deviation, n ≥ 2
Description: (§2) G. lamblia trophozoites (WBC6) were seeded into 96-well-plates in 0.2 mL Keister-medium containing 10^3 trophozoites per well in the presence of the compounds dissolved in dimethyl sulfoxide (DMSO, final concentration 0.25%) or with DMSO as a solvent control and incubated for 72 h at 37 °C in an anaerobic chamber (80% N2, 10% H2, 10% CO2). Then, plates were centrifuged (2 min, 1000 rpm), medium was removed, and cells were washed once with PBS containing 1 g/L glucose. Then, PBS-glucose containing 10 mg/L resazurin was added, and plates were incubated for up to 5 h at 37 °C. Fluorescence reading (ex 530 nm/em 590 nm) was performed at various time points, and the linear increase of fluorescence was used as a marker for cell viability. IC50 values were calculated using the logit-log algorithm and are given as mean values with 95%-confidence intervals ([Müller et al., 2020]; [Müller and Hemphill, 2013]; [Müller and Müller, 2019]). The assays for growth inhibition of T. b. brucei, T. cruzi, L. infantum, P. falciparum and MRC-5 (human lung fibroblasts MRC-5SV40) were previously described ([Blaazer et al., 2014]). PDE activity was determined exactly as described ([de Heuvel et al., 2021]; [Kunz et al., 2005], [2017b]). All assays were carried out in triplicates and no more than 20% substrate was hydrolyzed in all reactions. Compounds were dissolved in DMSO and the final DMSO concentration was 1% in all reaction mixes. Control reactions with DMSO alone were always included. Data were analyzed using the GraphPad Prism software package (v7.0, GraphPad, San Diego).

[4] = target: GlPDE (aa588-1371) (Giardia lamblia, UniProt A0A644EZ75); test: GlPDE activity inhibition; format: biochemical; conditions: for Ki: mean ± standard deviation, n ≥ 2
Description: as §2
Figure S69. Representative dose-response curve of 11 against GlPDE (aa588-1371) enzyme (substrate concentration: 1 μM).

[5] = tested on: Trypanosoma brucei brucei; test: Growth inhibition of T. b. brucei; format: cell-based; conditions: mean ± standard deviation, n ≥ 2
Description: as §2

[6] = tested on: G. lamblia trophozoites (WBC6); test: Growth inhibition of G. lamblia trophozoites (WBC6), resazurin viability read-out; format: cell-based, Giardia lamblia; conditions: for IC50: Giardia duodenalis; for fold higher anti-Giardia activity than metronidazole: versus metronidazole IC50 = 0.8 μM; for fold decrease of anti-Giardia activity: compared with 18
Description: as §2
Figure S67. Representative drug susceptibility curves of G. lamblia WBC6. Trophozoites were grown anaerobically in the presence of various concentrations of 17 (red), 29 (blue) and the reference compound metronidazole (MET, black). After 72 h, growth of cells was monitored by a cell viability assay based on the reduction of resazurin to a pink fluorescent product. Measured fluorescence units were normalized to the DMSO control. Data points and error bars represent mean and standard error of 4 replicates.

[7] = tested on: Trypanosoma cruzi; test: Growth inhibition of T. cruzi; format: cell-based; conditions: mean ± standard deviation, n ≥ 2
Description: as §2

[8] = target: hPDE4B (Homo sapiens, UniProt Q07343); test: Human PDE4 activity inhibition; format: biochemical; conditions: for Ki: mean ± standard deviation, n ≥ 2
Description: as §2

[9] = tested on: G. lamblia; parameters: method as in Blaazer et al., 2018; Kunz et al., 2017b; conditions: Fig. 2; ref Blaazer et al., 2018; Kunz et al., 2017b; cited from earlier work
[10] = tested on: GlPDE; parameters: method as in Blaazer et al., 2018; Kunz et al., 2017b; conditions: Fig. 2; ref Blaazer et al., 2018; Kunz et al., 2017b; cited from earlier work
[11] = tested on: T.b. brucei; parameters: method as in Blaazer et al., 2018; Kunz et al., 2017b; conditions: Fig. 2; ref Blaazer et al., 2018; Kunz et al., 2017b; cited from earlier work
[12] = tested on: TbrPDEB1; parameters: method as in Blaazer et al., 2018; Kunz et al., 2017b; conditions: Fig. 2; ref Blaazer et al., 2018; Kunz et al., 2017b; cited from earlier work
[13] = MRC5, mean ± standard deviation, n ≥ 2, read-out: IC50 (nM) MRC-5
[14] = WBC6 trophozoites, 72 h, anaerobic, mean ± standard error (95% CI, logit-log), quadruplicates, read-out: IC50 (nM) G.l.

Sequence of hPDE4B (Q07343 330-659 limits assumed): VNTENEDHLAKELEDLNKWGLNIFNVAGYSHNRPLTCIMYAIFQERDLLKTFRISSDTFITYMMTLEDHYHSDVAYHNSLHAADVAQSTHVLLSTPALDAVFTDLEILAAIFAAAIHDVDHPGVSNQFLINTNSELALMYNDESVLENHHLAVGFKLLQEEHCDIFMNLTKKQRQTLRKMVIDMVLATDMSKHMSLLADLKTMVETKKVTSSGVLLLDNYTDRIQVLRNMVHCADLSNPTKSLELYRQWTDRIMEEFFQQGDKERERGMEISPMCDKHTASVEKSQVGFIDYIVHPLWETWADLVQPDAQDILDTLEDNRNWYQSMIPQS

| SMILES | IC50 [2] [µM] | IC50 [3] [µM] | Ki [4] [µM] | IC50 [5] [µM] | IC50 [6, 14] [nM] | IC50 [7] [µM] | Ki [8] [µM] | IC50 [1, 13] [nM] | other results |
| --- | --- | --- | --- | --- | --- | --- | --- | --- | --- |
| COc1ccc(C2=NN(C3CCN(S(=O)(=O)c4cccc5cccnc45)CC3)C(=O)[C@@H]3CC=CC[C@H]23)cc1OC [Compound 10] |  |  |  |  |  |  |  |  | IC50 [9]: 1.5 µM; IC50 [10]: 3 µM; IC50 [11]: 0.42 µM; IC50 [12]: 0.03 µM |
| COc1ccc(C2=NN(C3CCN(c4ccc5nccn5n4)CC3)C(=O)CC2)cc1OC [Compound 20, 6-(3,4-Dimethoxyphenyl)-2-(1-(imidazo[1,2-b]pyridazin-6-yl)piperidin-4-yl)-4,5-dihydropyridazin-3(2H)-one] | > 64 | > 64 | > 1000 | > 64 | 930 ± 100 | > 64 | 0.005 ± 0.001 | > 64000 | GlPDE inhibition (in words) [4]: no GlPDE inhibition; fold decrease of anti-Giardia activity [6]: 4,500 fold |
| O=[N+]([O-])c1cnc2ccc(N3CCC(N4CCCC4)CC3)nn12 [Compound 25, 3-Nitro-6-(4-(pyrrolidin-1-yl)piperidin-1-yl)imidazo[1,2-b]pyridazine formate] | > 64 | > 64 |  | > 64 | 5.8 ± 0.9 | 39.9 ± 3.7 |  | > 64000 |  |
| O=[N+]([O-])c1cnc2ccc(N3CCCC3)nn12 [Compound 22, 3-Nitro-6-(pyrrolidin-1-yl)imidazo[1,2-b]pyridazine] | > 64 | > 64 |  | > 64 | 2.3 ± 0.4 | > 64 |  | > 64000 |  |

Second part, led by results:

| IC50 [2] [µM] | IC50 [3] [µM] | Ki [4] [µM] | IC50 [5] [µM] | IC50 [6, 14] [nM] | IC50 [7] [µM] | Ki [8] [µM] | SMILES | IC50 [1, 13] [nM] | other results |
| --- | --- | --- | --- | --- | --- | --- | --- | --- | --- |
| 6.3 ± 0.4 | 27.4 ± 25.3 | 0.5 ± 0.3 | 1 ± 0.7 | 0.5 ± 0.2 | 5.9 ± 4.5 | 0.00016 ± 2e-05 | COc1ccc(C2=NN(C3CCN(c4ccc5ncc([N+](=O)[O-])n5n4)CC3)C(=O)[C@@H]3CC=CC[C@H]23)cc1OC [Compound 11, (4aS,8aR)-4-(3,4-Dimethoxyphenyl)-2-(1-(3-nitroimidazo[1,2-b]pyridazin-6-yl)piperidin-4-yl)-4a,5,8,8a-tetrahydrophthalazin-1(2H)-one] | > 64000 | fold higher anti-Giardia activity than metronidazole [6]: > 1,000 fold; fold more active against human PDE4 than against GlPDE ([8]; Ki hPDE4 versus Ki GlPDE): 3,000 fold |
| 7.2 ± 0.4 | 28.9 ± 31 | > 1000 | 22.2 ± 15.9 | 19 ± 3.2 | 5.4 ± 4.1 | 0.2 ± 0.05 | COc1ccc(C2=NN(C3CCN(c4ccc5ncc([N+](=O)[O-])n5n4)CC3)C(=O)CC2)cc1Cl [Compound 19, 6-(3-Chloro-4-methoxyphenyl)-2-(1-(3-nitroimidazo[1,2-b]pyridazin-6-yl)piperidin-4-yl)-4,5-dihydropyridazin-3(2H)-one] | > 64000 | fold decrease of anti-Giardia activity [6]: 100 fold; fold higher anti-Giardia activity than metronidazole [6]: 40 fold; fold decrease of affinity for hPDE4B ([8]; compared to 18): 60 fold |
| 33.8 ± 37 | 26.4 ± 8.6 | > 10 | > 64 | 0.2 ± 0.1 | 50.9 ± 4.7 | 0.0032 ± 0.0004 | COc1ccc(C2=NN(C3CCN(c4ccc5ncc([N+](=O)[O-])n5n4)CC3)C(=O)CC2)cc1OC [Compound 18, 6-(3,4-Dimethoxyphenyl)-2-(1-(3-nitroimidazo[1,2-b]pyridazin-6-yl)piperidin-4-yl)-4,5-dihydropyridazin-3(2H)-one] | > 64000 | GlPDE Ki over IC50 for Giardia growth inhibition [4]: over 50,000 fold; IC50 ([6]; text value in pM, read-out: anti-Giardia IC50 on growth inhibition): ~0.2 nM; fold increase in anti-Giardia potency ([6]; compared with 11 (cyclohexene ring removed)): 2.5 fold; fold decrease of hPDE4 affinity ([8]; compared with 11): 20 fold |
| 23.4 ± 7.2 | > 64 |  | 27.6 ± 4.2 | 0.5 ± 0.1 | 8.6 ± 0.2 |  | O=[N+]([O-])c1cnc2ccc(N3CCC(Cc4ccccc4)CC3)nn12 [Compound 28, 6-(4-Benzylpiperidin-1-yl)-3-nitroimidazo[1,2-b]pyridazine] | 7960 | IC50 ([1]; MRC5, Table S1, mean ± standard deviation, n ≥ 2, read-out: IC50 (µM) MRC-5): 8000 ± 200 nM |
